In US10750729B2, “Pig for atrioventricular block model, monkey for atrioventricular block model, guinea pig for atrioventricular block model, and use thereof” (Toho University, priority 2012, dated 2020):

How the values were obtained:
Guinea pigs (Hartley) = experiment: Test Example 3-1: electrocardiogram and aortic pressure of halothane-anesthetized guinea pigs (FTY720); assay type: in vivo; details: guinea pig
Experimental: Guinea pigs (Hartley, body weight: 420 g to 650 g, male, obtained from Japan SLC, Inc.) were each anesthetized by intraperitoneally administering thereto sodium thiopental (product of Mitsubishi Tanabe Pharma Corporation) at 50 mg/kg. Next, a tracheal cannula was inserted into each of the guinea pigs. While their body temperature was being maintained at 37° C. with a warming pad, the guinea pigs were allowed to inhale 100% by volume oxygen and 1% by volume vaporized halothane (product of Takeda Pharmaceutical Company Limited.) using an artificial respirator for experimental animals (SN-480-7; product of shimano Co., Ltd.). Here, the artificial respirator for experimental animals was set to a tidal volume of 10 mL/kg and a respiration rate of 60 strokes/min. Next, a cannula for drug administration was inserted to their left femoral vein. In addition, a heparinized catheter for monitoring the blood pressure was inserted to the aorta through the left femoral […]. Then, ECG standard limb II leads was continuously recorded.
Each of the guinea pigs (n=12) of Example 3 was recorded for an electrocardiogram before administration of a drug or a solvent.
FTY720 (product of Sigma-Aldrich Inc.) was dissolved in physiological saline (product of Otsuka Pharmaceutical Factory, Inc.) so as to have a concentration of 0.03 mg/mL.
(§1) After the evaluation of base control, the cannula for drug administration was inserted, and the above-prepared FTY720 solution was intravenously administered to each of the guinea pigs (n=4) of Example 3 for 10 min at a dose of 0.01 mg/kg. These guinea pigs were evaluated for parameters by the following evaluation methods at 5 min, 10 min, 15 min, 20 min, 30 min, 45 min or 60 min after the administration of the FTY720 solution.
FTY720 (product of Sigma-Aldrich Inc.) was dissolved in physiological saline (product of Otsuka Pharmaceutical Factory, Inc.) so as to have a concentration of 0.3 mg/mL.
as §1, with “0.1” for “0.01”
The aortic pressure and the electrocardiogram were monitored using a polygraph system (RM-6000, product of NIHON KOHDEN Co. Ltd.) and analyzed with a full-automated analysis system in real time (WinVAS ver. 3, 1.1R03; product of Physio-Tech Co., Ltd.).
Parameters of the electrocardiogram were measured three times, and the obtained values were averaged. Atrial rate was calculated from PP interval of the electrocardiogram. Ventricular rate was calculated from RR interval of the electrocardiogram.
The measurements in FIGS. 4A to 4E are expressed as mean±SE (n=4). The difference between the parameters was evaluated with one-way repeated measures analysis of variance (ANOVA). It was considered that p<0.05 is statistically significant. In FIG. 4A to 4C and FIG. 4E, “white circle,” “white square” and “white triangle” each mean absence of a significant difference relative to the value of the evaluation of base control (C), and “black circle” and “black square” each mean presence of a significant difference relative to the value of the evaluation of base control (C).
Also, in FIG. 4D, “white circle” means absence of development of atrioventricular block or presence of development of first-degree atrioventricular block, “white square” means presence of development of second-degree atrioventricular block (Wenckebach type), “white triangle” means presence of development of advanced atrioventricular block, “x-mark” means presence of development of third-degree atrioventricular block (complete atrioventricular block), and #1 to 4 refer to each individual.

Dogs = experiment: Comparative Test Example 1: electrocardiogram of halothane-anesthetized dogs; assay type: in vivo; details: dog, 30 min recording
Experimental: Dogs (body weight: 10 kg, male, obtained from Nosan Co., Ltd.) were each anesthetized by intravenously administering thereto sodium thiopental (product of Mitsubishi Tanabe Pharma Corporation) at 30 mg/kg. After insertion of a tracheal cannula, an artificial respirator was used to ventilate it with 100% by volume oxygen and 1% by volume vaporized halothane. Here, the artificial respirator for experimental animals was set to a tidal volume of 20 mL/kg and a respiration rate of 15 strokes/min. Next, a cannula for drug administration was inserted to their left femoral vein. Then, ECG standard limb II leads was continuously recorded.
Each of the dogs (n=4) of Comparative Example 1 was recorded for an electrocardiogram before drug administration.
Fingolimod (FTY720, product of Sigma-Aldrich Inc.) was dissolved in 1% by mass lactic acid solution (product of Otsuka Pharmaceutical Factory, Inc.) so as to have a concentration of 0.3 mg/mL.
(§2) After the evaluation of base control, the cannula for drug administration was inserted, and the above-prepared FTY720 solution was intravenously administered to each of the dogs (n=4) of Comparative Example 1 for 10 min at a dose of 0.3 mg/kg. An electrocardiogram was recorded for 30 min from the start of administration of the FTY720 solution.
Fingolimod (FTY720, product of Sigma-Aldrich Inc.) was dissolved in 1% by mass lactic acid solution (product of Otsuka Pharmaceutical Factory, Inc.) so as to have a concentration of 3 mg/mL.
as §2, with “3” for “0.3”

human = details: 366 cases, 1.25 mg/day, Holter ECG one day after administration; cited from earlier work
[1] = FTY720 0.01 and 0.1 mg/kg/10 min i.v., for 60 min from start
[2] = high-dose 0.1 mg/kg/10 min i.v., n=4

change in atrial rate (Guinea pigs (Hartley); [1]): no significant change
change in QRS width (Guinea pigs (Hartley); high-dose 0.1 mg/kg/10 min i.v.): no significant change
change in PR interval (Guinea pigs (Hartley); high-dose 0.1 mg/kg/10 min i.v., before development of atrioventricular block): prolonged
change in ventricular rate (Guinea pigs (Hartley); high-dose 0.1 mg/kg/10 min i.v., from 20 min to 60 min): significant decrease
individuals that developed Wenckebach-type atrioventricular block (Guinea pigs (Hartley); [2]): one individual
change in ventricular rate (Guinea pigs (Hartley); low-dose 0.01 mg/kg/10 min i.v., for 60 min from start): no significant change
change in PR interval (Dogs; high-dose 3 mg/kg/10 min i.v.): no change
change in PR interval (Dogs; low-dose 0.3 mg/kg/10 min i.v.): no significant change
Compound: CCCCCCCCc1ccc(CCC(N)(CO)CO)cc1 [FTY720, Fingolimod]
change in blood pressure (MBP) (Guinea pigs (Hartley); [1]): no significant change
correspondence of P wave and R wave in the electrocardiogram (Guinea pigs (Hartley); high-dose 0.1 mg/kg/10 min i.v., 45 min after start): the atrium and the ventricle are contracted independently of each other at their own individual rhythms
change in QT interval (Guinea pigs (Hartley); high-dose 0.1 mg/kg/10 min i.v., from 45 min to 60 min): prolonged
individuals that developed complete atrioventricular block (Guinea pigs (Hartley); [2]): three individuals out of the four individuals
change in any electrophysiological parameters (PR interval, QRS width, QT interval) (Guinea pigs (Hartley); low-dose 0.01 mg/kg/10 min i.v., at 60 min from start): no significant change
change in heart rate (HR) (Dogs; high-dose 3 mg/kg/10 min i.v.): significantly increased
change in heart rate (HR) (Dogs; low-dose 0.3 mg/kg/10 min i.v.): no significant change
cases that developed advanced atrioventricular block (2:1 atrioventricular block) (human): 3.4%
cases that developed second-degree atrioventricular block (Mobitz type I or type II) (human): 6.6%
cases that developed third-degree atrioventricular block (complete atrioventricular block) (human): 0.3%
